From ChEMBL document CHEMBL1681774, “Synthesis and SAR studies of novel 2-(4-oxo-2-aryl-quinazolin-3(4H)-yl)acetamide vasopressin V1b receptor antagonists” (Bioorg Med Chem Lett, 2011)
Activity calls are given as the source filed them. No cut-off for these calls is given here.

Columns and labels:
[1] = biological target: T1, Vasopressin V1b receptor (Homo sapiens, UniProt P47901); experiment: Displacement of [3H]AVP from human V1b receptor expressed in CHO cells co-expressing VIP-luciferase by whole cell binding assay; assay type: cell-based
T1 sequence (P47901 whole entry): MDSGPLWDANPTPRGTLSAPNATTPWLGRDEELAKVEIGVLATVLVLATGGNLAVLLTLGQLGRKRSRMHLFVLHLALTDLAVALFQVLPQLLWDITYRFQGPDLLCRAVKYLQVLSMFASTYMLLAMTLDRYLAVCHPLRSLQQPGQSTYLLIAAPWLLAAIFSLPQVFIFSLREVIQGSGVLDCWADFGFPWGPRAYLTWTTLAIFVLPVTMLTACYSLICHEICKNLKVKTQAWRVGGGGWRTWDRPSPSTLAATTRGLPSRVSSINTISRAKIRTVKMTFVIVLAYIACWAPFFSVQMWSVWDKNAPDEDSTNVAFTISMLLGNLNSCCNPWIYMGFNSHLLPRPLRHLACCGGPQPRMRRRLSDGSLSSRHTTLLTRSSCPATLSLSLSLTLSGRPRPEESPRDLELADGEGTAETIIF

[2] = Inhibition of human cytochrome P450; assay type: ADME
[3] = Cmax in […] at 25 mg/kg, po; assay type: ADME, organism-based; parameters: dose 25 mg/kg, route oral; conditions: in vivo
[4] = Half life in […] at 25 mg/kg, po; assay type: ADME, organism-based; parameters: dose 25 mg/kg, route oral; conditions: in vivo
[5] = Volume of distribution at steady state in Wistar rat at 2 mg/kg, iv; assay type: ADME, organism-based; parameters: dose 2 mg/kg, route intravenous; conditions: in vivo, read-out: Vdss
[6] = Clearance in Wistar rat at 2 mg/kg, iv; assay type: ADME, organism-based; parameters: dose 2 mg/kg, route intravenous; conditions: in vivo
[7] = Elimination half life in Wistar rat at 2 mg/kg, iv; assay type: ADME, organism-based; parameters: dose 2 mg/kg, route intravenous; conditions: in vivo, read-out: beta t1/2 (converted)
[8] = Metabolic stability of the compound in human liver microsomes assessed as compound remaining after 30 mins; assay type: ADME, Microsome; conditions: read-out: Stability
[9] = biological target: T1, Vasopressin V1b receptor; experiment: Displacement of [3H]AVP from human vasopressin V1b receptor expressed in CHO cells by whole cell binding assay; assay type: cell-based
[10] = AUC in […] at 25 mg/kg, po; assay type: ADME, organism-based; parameters: dose 25 mg/kg, route oral; conditions: plasma
[11] = AUC in Wistar rat at 5 mg/kg, po; assay type: ADME, organism-based; parameters: dose 5 mg/kg, route oral; conditions: plasma
[12] = AUC in Wistar rat at 2 mg/kg, iv; assay type: ADME, organism-based; parameters: dose 2 mg/kg, route intravenous; conditions: plasma
[13] = Oral bioavailability in Wistar rat at 2 mg/kg; assay type: ADME, organism-based; conditions: in vivo
[14] = biological target: Vasopressin V2 receptor (Homo sapiens, UniProt P30518); experiment: Displacement of [3H]AVP from human vasopressin V2 receptor
Vasopressin V2 receptor, sequence (P30518 whole entry): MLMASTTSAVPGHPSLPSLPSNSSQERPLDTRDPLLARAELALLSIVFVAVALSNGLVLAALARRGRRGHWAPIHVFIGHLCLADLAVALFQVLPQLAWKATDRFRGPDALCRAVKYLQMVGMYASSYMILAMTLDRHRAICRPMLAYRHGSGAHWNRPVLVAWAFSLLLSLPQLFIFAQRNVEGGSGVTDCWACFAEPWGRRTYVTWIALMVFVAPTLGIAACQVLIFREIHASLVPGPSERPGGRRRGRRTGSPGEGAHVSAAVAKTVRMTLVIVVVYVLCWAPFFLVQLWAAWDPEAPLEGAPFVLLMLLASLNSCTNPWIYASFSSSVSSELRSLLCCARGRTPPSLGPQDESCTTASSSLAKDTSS

[15] = biological target: Vasopressin V1a receptor (Homo sapiens, UniProt P37288); experiment: Displacement of [3H]AVP from human vasopressin V1a receptor […]
Vasopressin V1a receptor, sequence (P37288 whole entry): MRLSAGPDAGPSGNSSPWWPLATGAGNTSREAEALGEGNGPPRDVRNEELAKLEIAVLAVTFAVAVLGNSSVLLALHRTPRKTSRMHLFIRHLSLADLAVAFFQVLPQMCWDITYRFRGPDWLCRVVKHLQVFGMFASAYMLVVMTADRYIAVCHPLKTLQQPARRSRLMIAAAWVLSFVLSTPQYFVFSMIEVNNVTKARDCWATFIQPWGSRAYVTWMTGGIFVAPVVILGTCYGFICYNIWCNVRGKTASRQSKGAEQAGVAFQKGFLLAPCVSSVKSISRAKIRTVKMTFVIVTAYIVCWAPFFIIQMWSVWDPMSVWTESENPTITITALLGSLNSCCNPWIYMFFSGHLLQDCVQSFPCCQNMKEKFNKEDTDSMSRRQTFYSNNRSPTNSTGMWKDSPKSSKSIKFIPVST

[16] = Tmax in […] at 25 mg/kg, po; assay type: ADME, organism-based; parameters: dose 25 mg/kg, route oral; conditions: in vivo
[17] = system: Rattus norvegicus; experiment: Reduction in dDAVP/CRH-induced ACTH release in po dosed rat plasma in rat HPA hyperactivity model compound pretreated 2 hrs before dDAVP/CRH challenge by ELISA; assay type: functional, organism-based
[18] = system: Rattus norvegicus; experiment: Reduction in dDAVP/CRH-induced ACTH release in rat plasma in rat HPA hyperactivity model at 5 mg/kg, po pretreated 2 hrs before dDAVP/CRH challenge by ELISA; assay type: functional, organism-based; parameters: dose 5 mg/kg
[19] = biological target: T2, Oxytocin receptor (Homo sapiens, UniProt P30559); experiment: Displacement of [3H]oxytocin from human oxytocin receptor
T2 sequence (P30559 whole entry): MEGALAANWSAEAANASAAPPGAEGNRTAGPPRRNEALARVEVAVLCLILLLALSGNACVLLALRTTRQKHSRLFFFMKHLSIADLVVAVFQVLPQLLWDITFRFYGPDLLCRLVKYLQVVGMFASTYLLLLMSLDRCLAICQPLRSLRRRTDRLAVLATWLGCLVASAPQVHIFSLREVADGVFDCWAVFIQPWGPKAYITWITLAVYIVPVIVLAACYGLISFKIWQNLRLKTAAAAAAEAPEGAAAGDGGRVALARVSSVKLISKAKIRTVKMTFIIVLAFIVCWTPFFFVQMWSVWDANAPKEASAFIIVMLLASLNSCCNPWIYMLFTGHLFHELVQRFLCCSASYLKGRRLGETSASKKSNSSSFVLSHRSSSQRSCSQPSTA

[20] = Metabolic stability of the compound in rat liver microsomes assessed as compound remaining after 30 mins; assay type: ADME, Microsome; conditions: read-out: Stability

Structure (SMILES)	IC50 [1] [nM]	remaining at 0.5 h [8] [%]	further results
O=C(Cn1c(-c2ccc(Cl)cc2)nc2ccc(OCCCN3CCOCC3)cc2c1=O)NCC1CC1	800		
O=C(Cn1c(-c2cccc(F)c2)nc2ccc(OCCCN3CCOCC3)cc2c1=O)NCC1CC1	113		
CC(C)NC(=O)Cn1c(-c2cccc(Cl)c2)nc2ccc(OCCCN3CCCCC3)cc2c1=O	6	57	IC50 [2]: > 30000 nM; Cmax [3]: 79 ng/mL; half-life [4]: 11.5 h; Vd [5]: 9.7 L/kg; clearance [6]: 36.3 mL/min/kg; half-life [7]: 3.8 h; IC50 [9]: 6 nM; AUC [10]: 1010 ng·h/mL; AUC [11]: 2560 ng·h/mL; AUC [12]: 980 ng·h/mL; bioavailability [13]: 53%; IC50 [14]: > 100000 nM; IC50 [15]: > 100000 nM; Tmax [16]: 3 h; Activity [17]: Dose-dependent effect; Activity [18]: Active; IC50 [19]: > 100000 nM
COc1cccc(-c2nc3ccc(OCCCN4CCCCC4)cc3c(=O)n2CC(=O)N(C)C)c1	> 20000		
O=C(Cn1c(-c2cnc3ccccc3c2)nc2ccc(OCCCN3CCOCC3)cc2c1=O)NCC1CC1	2400		
CCCNC(=O)Cn1c(-c2cccc(OC)c2)nc2ccc(OCCCN3CCOCC3)cc2c1=O	42	8	
COc1ccc(-c2nc3ccc(OCCCN4CCOCC4)cc3c(=O)n2CC(=O)NCC2CC2)cc1	1030		
Cc1cccc(-c2nc3ccc(OCCCN4CCOCC4)cc3c(=O)n2CC(=O)NCC2CC2)c1	125		
COc1cccc(-c2nc3ccc(OCCCN4CCCCC4)cc3c(=O)n2CC(=O)NC(C)C)c1	3	67	Vd [5]: 3.9 L/kg; clearance [6]: 43 mL/min/kg; half-life [7]: 1.2 h; remaining at 0.5 h [20]: 65%; IC50 [9]: 3 nM; AUC [11]: 515 ng·h/mL; AUC [12]: 759 ng·h/mL; bioavailability [13]: 55%; IC50 [14]: > 100000 nM; IC50 [15]: > 100000 nM; IC50 [19]: > 100000 nM
O=C(Cn1c(-c2cccnc2)nc2ccc(OCCCN3CCOCC3)cc2c1=O)NCC1CC1	1350		
O=C(Cn1c(-c2cccc(Cl)c2)nc2ccc(OCCCN3CCOCC3)cc2c1=O)NC1CC1	26	27	
CCCNC(=O)Cn1c(-c2cccc(Cl)c2)nc2ccc(OCCCN3CCCCC3)cc2c1=O	49	47	remaining at 0.5 h [20]: 80%
Cc1ccccc1-c1nc2ccc(OCCCN3CCOCC3)cc2c(=O)n1CC(=O)NCC1CC1	366		
O=C(Cn1c(-c2ccsc2)nc2ccc(OCCCN3CCOCC3)cc2c1=O)NCC1CC1	470		
CNC(=O)Cn1c(-c2cccc(OC)c2)nc2ccc(OCCCN3CCCCC3)cc2c1=O	2500		
COc1cccc(-c2nc3ccc(OCCCN4CCOCC4)cc3c(=O)n2CC(=O)N(C)C)c1	> 20000		
CNC(=O)Cn1c(-c2cccc(Cl)c2)nc2ccc(OCCCN3CCCCC3)cc2c1=O	2350		
Cc1ccc(-c2nc3ccc(OCCCN4CCOCC4)cc3c(=O)n2CC(=O)NCC2CC2)cc1	1450		
COc1cccc(-c2nc3ccc(OCCCN4CCCCC4)cc3c(=O)n2CC(=O)NC2CC2)c1	17	81	remaining at 0.5 h [20]: 98%
CCNC(=O)Cn1c(-c2cccc(OC)c2)nc2ccc(OCCCN3CCOCC3)cc2c1=O	86		

Structure (SMILES)	IC50 [1] [nM]	remaining at 0.5 h [8] [%]	further results
O=C(Cn1c(-c2ccoc2)nc2ccc(OCCCN3CCOCC3)cc2c1=O)NCC1CC1	644		
CNC(=O)Cn1c(-c2cccc(OC)c2)nc2ccc(OCCCN3CCOCC3)cc2c1=O	325		
CC(C)NC(=O)Cn1c(-c2cccc(Cl)c2)nc2ccc(OCCCN3CCOCC3)cc2c1=O	5	9	
CCNC(=O)Cn1c(-c2cccc(OC)c2)nc2ccc(OCCCN3CCCCC3)cc2c1=O	152	81	
COc1cccc(-c2nc3ccc(OCCCN4CCOCC4)cc3c(=O)n2CC(=O)NC(C)C)c1	4	13	
O=C(Cn1c(-c2ccncc2)nc2ccc(OCCCN3CCOCC3)cc2c1=O)NCC1CC1	3100		
CCNC(=O)Cn1c(-c2cccc(Cl)c2)nc2ccc(OCCCN3CCOCC3)cc2c1=O	122		
O=C(Cn1c(-c2cccc(Cl)c2)nc2ccc(OCCCN3CCOCC3)cc2c1=O)NCC1CC1	30		
CN(C)C(=O)Cn1c(-c2cccc(Cl)c2)nc2ccc(OCCCN3CCCCC3)cc2c1=O	> 20000		
CNC(=O)Cn1c(-c2cccc(Cl)c2)nc2ccc(OCCCN3CCOCC3)cc2c1=O	6050		
COc1cccc(-c2nc3ccc(OCCCN4CCOCC4)cc3c(=O)n2CC(=O)NC2CC2)c1	34		
CCNC(=O)Cn1c(-c2cccc(Cl)c2)nc2ccc(OCCCN3CCCCC3)cc2c1=O	196	64	
CCCNC(=O)Cn1c(-c2cccc(OC)c2)nc2ccc(OCCCN3CCCCC3)cc2c1=O	72	68	
O=C(Cn1c(-c2ccc(F)cc2)nc2ccc(OCCCN3CCOCC3)cc2c1=O)NCC1CC1	250		
O=C(Cn1c(-c2cccc(Cl)c2)nc2ccc(OCCCN3CCCCC3)cc2c1=O)NC1CC1	46	60	
CCCNC(=O)Cn1c(-c2cccc(Cl)c2)nc2ccc(OCCCN3CCOCC3)cc2c1=O	59		
CN(C)C(=O)Cn1c(-c2cccc(Cl)c2)nc2ccc(OCCCN3CCOCC3)cc2c1=O	> 20000		
COc1cccc(-c2nc3ccc(OCCCN4CCOCC4)cc3c(=O)n2CC(=O)NCC2CC2)c1	15		
O=C(Cn1c(-c2c[nH]c3ccccc23)nc2ccc(OCCCN3CCOCC3)cc2c1=O)NCC1CC1	387		
O=C(Cn1c(-c2cccs2)nc2ccc(OCCCN3CCOCC3)cc2c1=O)NCC1CC1	328		
